# Laboratory results from PMC11649115, “In vitro safety evaluation of dopamine D3R antagonist, R-VK4-116, as a potential medication for the treatment of opioid use disorder” (PLOS ONE, 2024).
# What was measured:
# [1] = biological target: D3R; parameters: method as in PMID 31526003; details: read-out: binding affinity for D3R (Ki); cited from earlier work
# [2] = system: HepG2 cells; assay: Lysosomal trapping assay (Lyso-ID Red); assay type: cell-based; details: HepG2, 0.1, 1.0, and 10.0 μM, up to 72 hr
# Method: After incubation timepoint, the treated cells were washed and incubated with fluorescent dual color detection reagent for 60 min. Subsequently, the fluorescence was measured with Spectramax ID5. An increase in red signal without significant loss (no more than 30%) of the blue signal indicates the accumulation of test article within the cells arising from an increase in lysosome or lysosome-like vesicles in size and/or number. The assay results were presented as fluorescence fold change for red stain and blue stain individually and were calculated as follows: Fluorescencefoldchange=RelativeFluorescenceUnit(RFU)measuredfortestarticleconcentration/RFUmeasuredforrespectivesolventcontrol
# The acceptance criteria for significant lysosomal perturbation was a ≥ 2-fold increase in red fluorescence with no loss of blue fluorescence.
# [3] = biological target: T1, CYP2C8 (Homo sapiens, UniProt P10632); assay: CYP inhibition in human liver microsomes; details: human liver microsomes
# T1 sequence (P10632 1-490): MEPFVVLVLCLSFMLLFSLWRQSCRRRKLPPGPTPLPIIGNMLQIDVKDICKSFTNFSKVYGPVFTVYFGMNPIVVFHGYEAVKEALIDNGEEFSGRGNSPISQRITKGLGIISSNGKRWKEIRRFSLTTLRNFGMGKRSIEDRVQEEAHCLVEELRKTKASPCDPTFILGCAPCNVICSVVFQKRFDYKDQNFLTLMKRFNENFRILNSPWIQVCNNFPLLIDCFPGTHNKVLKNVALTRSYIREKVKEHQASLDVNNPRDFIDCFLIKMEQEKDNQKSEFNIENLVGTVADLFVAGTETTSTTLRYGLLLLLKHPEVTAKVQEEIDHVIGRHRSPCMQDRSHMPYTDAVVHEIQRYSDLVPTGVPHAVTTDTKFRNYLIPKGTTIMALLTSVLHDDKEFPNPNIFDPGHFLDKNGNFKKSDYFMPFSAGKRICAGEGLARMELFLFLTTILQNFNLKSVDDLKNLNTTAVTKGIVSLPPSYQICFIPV
# [4] = biological target: T2, BCRP (Homo sapiens, UniProt Q9UNQ0); assay: Transporter mediated assay (substrate/inhibitor), MDCK-II cells; assay type: in vitro ADME
# T2 construct: expressed in transfected cells; host or cells: MDCK-II cells
# T2 sequence (Q9UNQ0 1-655): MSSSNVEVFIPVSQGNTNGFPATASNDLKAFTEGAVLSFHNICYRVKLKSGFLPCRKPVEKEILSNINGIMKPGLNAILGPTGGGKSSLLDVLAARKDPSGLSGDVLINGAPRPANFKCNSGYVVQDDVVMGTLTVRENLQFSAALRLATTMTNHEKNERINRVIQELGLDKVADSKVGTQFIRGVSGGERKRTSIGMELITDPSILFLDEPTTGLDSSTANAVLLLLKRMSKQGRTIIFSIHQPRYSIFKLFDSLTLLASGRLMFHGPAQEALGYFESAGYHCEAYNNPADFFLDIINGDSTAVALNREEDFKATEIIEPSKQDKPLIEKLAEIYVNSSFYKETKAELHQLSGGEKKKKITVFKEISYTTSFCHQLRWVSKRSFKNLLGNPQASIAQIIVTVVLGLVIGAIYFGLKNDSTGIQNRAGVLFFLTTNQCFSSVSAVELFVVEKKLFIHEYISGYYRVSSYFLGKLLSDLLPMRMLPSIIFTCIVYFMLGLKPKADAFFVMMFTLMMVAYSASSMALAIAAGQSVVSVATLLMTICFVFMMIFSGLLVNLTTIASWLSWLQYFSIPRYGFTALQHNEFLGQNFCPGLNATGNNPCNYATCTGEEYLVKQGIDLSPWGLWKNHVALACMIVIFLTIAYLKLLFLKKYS
# Method: The MDCK-II cells were treated to express the transporter of interest.
# For BCRP and P-gp, the apparent permeability Papp and Efflux Ratio (ER) were calculated [16]. Net basal (B) to apical (A) flux (B → A) of the substrate transport (pmol/min/cm^2) by BCRP or P-gp was calculated by subtracting A → B flux from B → A flux.
# [5] = Metabolic stability in hepatocyte; details: human, hepatocytes in suspension
# Method: (§1) CYP3A4 substrate Midazolam (10 μM) was prepared and incubated in the same manner. […] In addition, in vitro half-life (t1/2, min) and intrinsic clearance (CLint, μl/min/10^6 cells) were calculated [10, 11].
# [6] = system: rat hepatocytes; assay: Metabolic stability in hepatocyte; details: rat hepatocytes
# Method: as §1
# [7] = Metabolic stability in hepatocyte; details: Sprague Dawley, rat, hepatocytes in suspension
# Method: as §1
# [8] = biological target: T3, hGABAA∞1β2γ2 (Homo sapiens, UniProt P14867+P18507+P47870); assay: IonFlux HT electrophysiological assay; assay type: cell-based; details: 10 μM
# T3 construct: Eurofins Cerep (France) and Eurofins Discovery (St. Charles, MO)
# Method: Electrophysiological assays were also conducted to profile R-VK4-116 for activities on ion channel targets. The QPatch HT (patch clamp) measured the agonist or antagonist activity of R-VK4-116 on ion channels. For these assays, the voltage was used as the ligand to activate the channel and induce a measurable current. The IonFlux HT measured the agonist, antagonist, or PAM activity of R-VK4-116 on ligand-gated ion channels. For these assays, GABA or Acetylcholine (ACh) was used as the ligand to activate the channel and induce measurable current. The six ion channels tested at 10 μM of R-VK4-116 in replicate were hNav1.5 Peak, hERG, hKCNQ1/minK, hCav1.2, hGABAA∞1/β2g2 and hnAChR∞4/β2.
# [9] = system: HepG2 cells; assay: Cytotoxicity MTT assay in HepG2; assay type: cell-based; details: 72-hr, 10 to 100 μM
# [10] = Metabolic stability in liver microsomes; details: rat, pH 7.4
# [11] = Sprague Dawley (rat), Beagle (dog), rat, dog
# [12] = heat-inactivated liver microsomes
# T3 sequence (P14867 28-456): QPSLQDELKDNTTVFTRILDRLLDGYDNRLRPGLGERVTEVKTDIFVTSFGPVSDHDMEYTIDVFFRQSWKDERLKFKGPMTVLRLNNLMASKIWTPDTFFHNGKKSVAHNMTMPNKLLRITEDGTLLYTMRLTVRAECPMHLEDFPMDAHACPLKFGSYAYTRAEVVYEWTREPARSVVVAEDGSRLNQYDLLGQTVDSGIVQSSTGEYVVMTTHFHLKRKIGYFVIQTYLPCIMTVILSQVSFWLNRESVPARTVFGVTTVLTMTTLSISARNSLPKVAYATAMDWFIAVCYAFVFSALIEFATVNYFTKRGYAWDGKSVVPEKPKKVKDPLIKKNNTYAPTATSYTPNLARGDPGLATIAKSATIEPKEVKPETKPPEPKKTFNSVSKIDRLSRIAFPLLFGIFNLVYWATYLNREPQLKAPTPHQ
# T3 sequence (P47870 25-512 limits assumed): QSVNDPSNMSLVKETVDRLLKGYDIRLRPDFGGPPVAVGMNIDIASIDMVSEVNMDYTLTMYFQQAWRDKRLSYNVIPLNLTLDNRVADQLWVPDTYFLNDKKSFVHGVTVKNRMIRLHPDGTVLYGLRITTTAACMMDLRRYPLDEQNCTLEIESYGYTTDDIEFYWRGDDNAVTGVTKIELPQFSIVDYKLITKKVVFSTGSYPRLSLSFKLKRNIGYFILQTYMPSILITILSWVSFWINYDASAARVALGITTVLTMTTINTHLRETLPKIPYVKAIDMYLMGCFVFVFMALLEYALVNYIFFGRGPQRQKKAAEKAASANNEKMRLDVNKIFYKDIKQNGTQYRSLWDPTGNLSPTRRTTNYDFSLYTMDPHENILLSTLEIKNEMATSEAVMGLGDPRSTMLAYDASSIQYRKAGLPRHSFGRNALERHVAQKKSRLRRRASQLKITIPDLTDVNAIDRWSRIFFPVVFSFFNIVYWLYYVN
# T3 sequence (P18507 40-475): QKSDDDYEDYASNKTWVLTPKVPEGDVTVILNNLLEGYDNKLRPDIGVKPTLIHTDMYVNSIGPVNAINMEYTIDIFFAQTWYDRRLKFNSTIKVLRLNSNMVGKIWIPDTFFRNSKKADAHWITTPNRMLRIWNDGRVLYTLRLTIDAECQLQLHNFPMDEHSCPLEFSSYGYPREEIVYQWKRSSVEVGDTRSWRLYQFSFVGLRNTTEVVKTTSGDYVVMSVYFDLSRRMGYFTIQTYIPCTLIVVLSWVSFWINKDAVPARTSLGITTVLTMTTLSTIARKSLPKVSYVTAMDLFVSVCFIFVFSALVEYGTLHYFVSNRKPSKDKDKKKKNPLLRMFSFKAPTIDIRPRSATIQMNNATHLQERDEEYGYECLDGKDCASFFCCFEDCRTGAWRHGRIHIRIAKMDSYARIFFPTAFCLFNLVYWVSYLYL
structure (smiles),measurement,setting,value
"CCc1cc(Cl)c(OC)c(N2CCN(CC(O)CCNC(=O)c3cc4ccccc4[nH]3)CC2)c1 (stereo not shown) [R-VK4-116, N-(4-(4-(3-chloro-5-ethyl-2-methoxyphenyl)piperazin-1-yl)-3-hydroxybutyl)-1H-indole-2-carboxamide]",Ki,[1],7.4 nM
same,red lysosomal stain signal / blue nuclear stain signal over solvent control,[2],No significant increase in red lysosomal stain signal or decrease in blue nuclear stain signal
same,CYP2C8 inhibition,[3]; up to 100 μM,did not inhibit CYP significantly
same,"activity at 20 min, 0.1 µM","[3]; human, probe paclitaxel",85.9 ± 18.2%
same,"activity at 20 min, 0.3 µM","[3]; human, probe paclitaxel",68.2 ± 2.8%
same,"activity at 20 min, 1 µM","[3]; human, probe paclitaxel",70.5 ± 7.1%
same,"activity at 20 min, 3 µM","[3]; human, probe paclitaxel",95.7 ± 11.2%
same,"activity at 20 min, 10 µM","[3]; human, probe paclitaxel",89.8 ± 19.7%
same,"activity at 20 min, 30 µM","[3]; human, probe paclitaxel",75.8 ± 4.5%
same,"activity at 20 min, 60 µM","[3]; human, probe paclitaxel",75.3 ± 6.4%
same,"activity at 20 min, 100 µM","[3]; human, probe paclitaxel",80.6 ± 15.2%
same,Papp A→B at 1 µM,"[4]; BCRP, substrate test, 1 µM",< 0.2 ×10⁻⁶ cm/s
same,Papp B→A at 1 µM,"[4]; BCRP, substrate test, 1 µM",< 0.1 ×10⁻⁶ cm/s
same,inhibition at 10 µM,[4]; probe prazosin 2 μM,54 ± 1.46%
same,half-life at 0.5 μM,[5]; [11],1.52 to 1.95 h
same,half-life at 10 μM,[5]; [11],2.82 to 5.78 h
same,hepatocyte CLint at 0.5 μM,[5]; [11],12 to 16 µL/min/1e6 cells
same,hepatocyte CLint at 10 μM,[5]; [11],4 to 8 µL/min/1e6 cells
same,half-life at 0.5 μM,[5],1.95 h
same,half-life at 10 μM,[5],5.63 h
same,hepatocyte CLint at 0.5 μM,[5],11.8 µL/min/1e6 cells
same,hepatocyte CLint at 10 μM,[5],4.1 µL/min/1e6 cells
same,% remaining Vs T = 0 min,"[6]; 0.5 μM, 0 min",100.0%
same,% remaining Vs T = 0 min,"[6]; 0.5 μM, 30 min",85.0%
same,% remaining Vs T = 0 min,"[6]; 0.5 μM, 60 min",55.6%
same,% remaining Vs T = 0 min,"[6]; 0.5 μM, 90 min",42.4%
same,% remaining Vs T = 0 min,"[6]; 0.5 μM, 120 min",42.5%
same,% remaining Vs T = 0 min,"[6]; 10 μM, 0 min",100.0%
same,% remaining Vs T = 0 min,"[6]; 10 μM, 30 min",95.8%
same,% remaining Vs T = 0 min,"[6]; 10 μM, 60 min",92.5%
same,% remaining Vs T = 0 min,"[6]; 10 μM, 90 min",66.7%
same,% remaining Vs T = 0 min,"[6]; 10 μM, 120 min",64.6%
same,half-life at 0.5 μM,[7],1.44 h
same,half-life at 10 μM,[7],2.82 h
same,hepatocyte CLint at 0.5 μM,[7],16 µL/min/1e6 cells
same,hepatocyte CLint at 10 μM,[7],8.2 µL/min/1e6 cells
same,agonist effect,[8],97.71%
same,decrease in HepG2 cell viability compared with the solvent control (MTT),[9],40–50%
same,"remaining at 0 h, 1 μM",[10]; [12],100%
same,"remaining at 0 h, 10 μM",[10]; [12],100%
same,"remaining at 2 h, 1 μM",[10]; [12],94.9%
same,"remaining at 2 h, 10 μM",[10]; [12],95.4%
same,"remaining at 0 h, 1 μM",[10]; liver microsomes,100%
same,"remaining at 0 h, 10 μM",[10]; liver microsomes,100%
same,"remaining at 0.5 h, 1 μM",[10]; liver microsomes,79.4%
same,"remaining at 0.5 h, 10 μM",[10]; liver microsomes,87.1%
same,"remaining at 1 h, 1 μM",[10]; liver microsomes,56.8%
same,"remaining at 1 h, 10 μM",[10]; liver microsomes,79.7%
same,"remaining at 1.5 h, 1 μM",[10]; liver microsomes,45.5%
same,"remaining at 1.5 h, 10 μM",[10]; liver microsomes,73.3%
same,"remaining at 2 h, 1 μM",[10]; liver microsomes,37.5%
same,"remaining at 2 h, 10 μM",[10]; liver microsomes,69.4%
